Here are results for two molecules from US5475136A, “Inhibitors of HIV protease useful for the treatment of AIDS” (Eli Lilly and Company, priority 1992, dated 1995).

The IC50 is the concentration that inhibits the measured activity by half.

The target in the assay is T1, HIV-1 protease (Human immunodeficiency virus type 1 group M subtype B, UniProt P04585).
T1 construct: host or cells: E. coli K12 L507/pHP10D
The experiment in a line: biochemical. Particulars: read-out: Fluorescence Assay IC50 (converted). The protocol: Lyophils of E. coli K12 L507/pHP10D were obtained from the Northern Regional Research Laboratory, Peoria, Ill. 61604, under the accession number NRRL B-18560 (deposited Nov. 14, 1989).
A culture of E. coli K12 L507/pHP10D was grown to mid-log phase at 32° C. in LB media containing 12.5 μg/mL tetracycline. The cultivation temperature was quickly elevated to 40° C. to induce gene expression, and the cells were allowed to grow for 2.5 hours at this temperature before the culture was quickly chilled on ice. The cells were centrifuged and the cell pellet was resuspended in 20 mL 50 mmol MES buffer (pH 6.0) containing 1 mmol EDTA, 1 mmol DTT, 1 mmol PMSF and 10% glycerol ("Buffer A"). Cells were lysed by sonication using a Fischer Model 300 Dismembrator and a microtip probe. […] Res. Commun., 167, 554-560 (1990); the production of the pl peptide (SQNY) was measured.
The active fractions were combined, made 1.2M in ammonium sulfate, and applied to a 2.0×18 cm hexyl agarose column that had been equilibrated in Buffer A containing 1.2M ammonium sulfate. The sample was loaded at a flow rate of 1 mL/min at 4° C., washed with the equilibration buffer for 240 min (1 mL/min) and then eluted using a reverse linear gradient of 1.2-0M ammonium sulfate in Buffer A for 120 min at the same flow rate. The column was then washed isocratically in Buffer A for 120 min. […]

In the case of `CC(=O)N[C@@H](CC(N)=O)C(=O)N[C@@H](CSc1ccc2ccccc2c1)[C@H](O)Cc1ccccc1C(=O)NC(C)(C)C` (relative stereo) [Example 1, [2'R-(2'R*,3'R*, 6'S*)]-N(t-butyl)-2-[2'-hydroxy-3'-naphth-2-ylthiomethyl-4',7'-diaza-5',8'-dioxo-6'-(2"-amino-2"-oxoethyl)]nonyl benzamide], the half-maximal inhibitory concentration (IC50) is 1.24 nM.
As for `CC(=O)N[C@@H](CC(N)=O)C(=O)N[C@@H](CSc1ccccc1)[C@H](O)Cc1ccccc1C(=O)NC(C)(C)C` (relative stereo) [Example 2, [2'R-(2'R*,3'R*,6'S*)]-N(t-Butyl)-2-[2'-hydroxy-3'-phenylthiomethyl-4',7'-diaza-5',8'-dioxo-6'-(2"-amino-2"-oxoethyl)]nonyl benzamide], the IC50 was 21.2 nM.
